Experimental data from patent US20080039482A1, “SULFONAMIDO-MACROCYCLES AS TIE2 INHIBITORS AND SALTS THEREOF, PHARMACEUTICAL COMPOSITIONS COMPRISING SAME, METHODS OF PREPARING SAME AND USES OF SAME” (priority 2006, published 2008).

Assays:
Aurora-C = biological target: T1, Aurora-C (Homo sapiens, UniProt Q9UQB9); assay: Aurora C HTRF assay (assay 5); format: biochemical; settings: IC50 assay 5/IC50 assay 2
T1 construct: GST; made in house; host or cells: HEK293 (the text adds '(Sf9)', which contradicts this)
T1 sequence (Q9UQB9 1-309): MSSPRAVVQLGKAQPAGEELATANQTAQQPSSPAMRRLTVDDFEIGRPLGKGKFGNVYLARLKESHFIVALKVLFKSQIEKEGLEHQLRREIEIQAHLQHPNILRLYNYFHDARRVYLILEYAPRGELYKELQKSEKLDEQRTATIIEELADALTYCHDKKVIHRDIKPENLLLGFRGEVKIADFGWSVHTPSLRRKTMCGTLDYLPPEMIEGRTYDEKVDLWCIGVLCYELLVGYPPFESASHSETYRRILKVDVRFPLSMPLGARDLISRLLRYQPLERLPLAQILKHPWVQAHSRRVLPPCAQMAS
From the text: Assay 5: Aurora C HTRF Assay
Aurora-C inhibitory activity of compounds of the present invention was quantified employing the Aurora-C HTRF assay as described in the following paragraphs.
Recombinant fusion protein of GST and human Aurora-C was expressed in transiently transfected HEK293 cells (Sf9) and purified by Glutathion-Sepharose affinity chromatography. As substrate for the kinase reaction biotinylated peptide biotin-Ttds-FMRLRRLSTKYRT (C-terminus in amid form) was used which can be purchased e.g. form the company JERINI peptide technologies (Berlin, Germany). Aurora-C was incubated for 60 min at 22° C. in the presence of different concentrations of test compounds in 5 μl assay buffer [25 mM Hepes/NaOH pH 7.4, 0.5 mM MnCl2, 2.0 mM dithiothreitol, 0.1 mM sodium ortho-vanadate, 10 μM adenosine-tri-phosphate (ATP), […] substrate, 0.01% (v/v) TritonX-100 (Sigma), 0.05% (w/v) bovine serum albumin, 1% (v/v) dimethylsulfoxide]. The concentration of Aurora-C was adjusted depending of the activity of the enzyme lot and was chosen appropriate to have the assay in the linear range, typical concentrations were in the range of 0.3 nM. The reaction was stopped by the addition of 5 μl of a solution of HTRF detection reagents (0.2 μM streptavidine-XLent and 1.4 nM Anti-Phospho-(Ser/Thr) Akt substrate-Cryptate (Cis biointernational, France, product no. 61P02KAE), a labeled Phospho-(Ser/Thr) Akt substrate antibody [product #9611B, Cell Signalling Technology, Danvers, Mass., USA] labeled with Europium Cryptate, in an aqueous EDTA-solution (40 mM EDTA, 400 mM KF, 0.05% (w/v) bovine serum albumin in 25 mM HEPES/NaOH pH 7.0).
The resulting mixture was incubated 1 h at 22° C. to allow the binding of the biotinylated phosphorylated peptide to the streptavidine-XLent and the Anti-Phospho-(Ser/Thr) Akt substrate-Cryptate. Subsequently the amount of phosphorylated substrate was evaluated by measurement of the resonance energy transfer from the Prot-A-EuK to the streptavidine-XLent. Therefore, the fluorescence emissions at 620 nm and 665 nm after excitation at 350 nm was measured in a HTRF reader, e.g. a Rubystar (BMG Labtechnologies, Offenburg, Germany) or a Viewlux (Perkin-Elmer). The ratio of the emissions at 665 nm and at […] was taken as the measure for the amount of phosphorylated substrate. The data were normalised (enzyme reaction without inhibitor=0% inhibition, all other assay components but no enzyme=100% inhibition) and IC50 values were calculated by a 4 parameter fit using an inhouse software.

CDK2/CycE = biological target: T2, CDK2/CycE (Homo sapiens, UniProt P24941); assay: CDK2 HTRF assay (assay 4); format: biochemical; settings: IC50 assay 4/IC50 assay 2
T2 construct: GST; purchased ProQinase GmbH (Freiburg, Germany); host or cells: insect cells (Sf9)
From the text: CDK2/CycE-inhibitory activity of compounds of the present invention was quantified employing the CDK2/CycE HTRF assay as described in the following paragraphs.
Recombinant fusion proteins of GST and human CDK2 and of GST and human CycE, expressed in insect cells (Sf9) and purified by Glutathion-Sepharose affinity chromatography, were purchase from ProQinase GmbH (Freiburg, Germany). As substrate for the kinase reaction biotinylated peptide biotin-Ttds-YISPLKSPYKISEG (C-terminus in amid form) was used which can be purchased e.g. form the company JERINI peptide technologies (Berlin, Germany).
CDK2/CycE was incubated for 60 min at 22° C. in the presence of different concentrations of test compounds in 5 μl assay buffer [50 mM Tris/HCl pH 8.0, 10 mM MgCl2, 1.0 mM dithiothreitol, 0.1 mM sodium ortho-vanadate, 10 μM adenosine-tri-phosphate (ATP), 0.75 μM substrate, 0.01% (v/v) Nonidet-P40 (Sigma), 1% (v/v) dimethylsulfoxide]. The concentration of CDK2/CycE was adjusted depending of the activity of the enzyme lot and was chosen appropriate to have the assay in the linear range, typical concentrations were in the range of 1 ng/ml. The reaction was stopped by the addition of 5 μl of a solution of HTRF detection reagents (0.2 μM streptavidine-XLent and 3.4 nM Phospho-(Ser) CDKs Substrate Antibody [product #2324B, Cell Signalling Technology, Danvers, Mass., USA} and 4 nM Prot-A-EuK [Protein A labeled with Europium Cryptate from Cis biointernational, France, product no. 61PRAKLB]) in an aqueous EDTA-solution (100 mM EDTA, 800 mM KF, 0.2% (w/v) bovine serum albumin in 100 mM HEPES/NaOH pH 7.0).

| Compound | Selectivity vs. Aurora C (Aurora-C) | Selectivity vs. CDK2 (CDK2/CycE) |
| --- | --- | --- |
| Cc1ccc(C2(C(=O)Nc3ccc(-c4cnc5nc4NCCCNS(=O)(=O)c4cccc(c4)N5)cc3)CC2)cc1 [Example 1, 1-p-Tolyl-cyclopropane-carboxylic acid [4-(13,13-dioxo-13λ^6-thia-2,4,8,12,19-pentaaza-tricyclo[12.3.1.1^3,7]nonadeca-1(18),3(19),4,6, 14,16-hexaen-6-yl)-phenyl]-amide] | >20 fold | >20 fold |
| Cc1ccccc1C1(C(=O)Nc2ccc(-c3cnc4nc3NCCCNS(=O)(=O)c3cccc(c3)N4)cc2)CC1 [Example 2, 1-o-Tolyl-cyclopropane-arboxylic acid [4-(13,13-dioxo-13λ^6-thia-2,4,8,12,19-pentaaza-tricyclo[12.3.1.1^3,7]nonadeca-1(18),3(19),4,6,14,16-hexaen-6-yl)-phenyl]-amide] | >20 fold | >20 fold |
| COc1cccc(C2(C(=O)Nc3ccc(-c4cnc5nc4NCCCNS(=O)(=O)c4cccc(c4)N5)cc3)CC2)c1 [Example 3, 1-(3-Methoxy-phenyl)-cyclopropane-carboxylic acid [4-(13,13-dioxo-13λ^6-thia-2,4,8,12,19-pentaaza-tricyclo[12.3.1.1^3,7]nonadeca-1(18),3(19),4,6,14,16-hexaen-6-yl)-phenyl]-amide] | >20 fold | >20 fold |
| COc1ccc(C2(C(=O)Nc3ccc(-c4cnc5nc4NCCCNS(=O)(=O)c4cccc(c4)N5)cc3)CC2)cc1 [Example 4, 1-(4-Methoxy-phenyl)-cyclopropane-carboxylic acid [4-(13,13-dioxo-13λ^6-thia-2,4,8,12,19-pentaaza-tricyclo[12.3.1.1^3,7]-nonadeca-1(18),3(19),4,6,14,16-hexaen-6-yl)-phenyl]-amide] | >20 fold | >20 fold |
| O=C(Nc1ccc(-c2cnc3nc2NCCCNS(=O)(=O)c2cccc(c2)N3)cc1)C1(c2cccc(Cl)c2)CC1 [Example 5, 1-(3-Chloro-phenyl)-cyclopropane-arboxylic acid [4-(13,13-dioxo-13λ^6-thia-2,4,8,12,19-pentaaza-tricyclo[12.3.1.1^3,7]-nadeca-1(18),3(19),4,6,14,16-hexaen-6-yl)-phenyl]-amide] | >20 fold | >20 fold |
| O=C(Nc1ccc(-c2cnc3nc2NCCCNS(=O)(=O)c2cccc(c2)N3)cc1)C1(c2ccc(Cl)cc2)CC1 [Example 6, 1-(4-Chloro-phenyl)-cyclopropane-carboxylic acid [4-(13,13-dioxo-13λ^6-thia-2,4,8,12,19-pentaaza-tricyclo[12.3.1.1^3,7]-nonadeca-1(18),3(19),4,6,14,16-hexaen-6-yl)-phenyl]-amide] | >20 fold | >20 fold |
| O=C(Nc1ccc(-c2cnc3nc2NCCCNS(=O)(=O)c2cccc(c2)N3)cc1)C1(c2ccccc2F)CC1 [Example 7, 1-(2-Fluoro-phenyl)-cyclopropane-carboxylic acid [4-(13,13-dioxo-13λ^6-thia-2,4,8,12,19-pentaaza-tricyclo[12.3.1.1^3,7]nonadeca-1(18),3(19),4,6,14,16-hexaen-6-yl)-phenyl]-amide] | >20 fold | >20 fold |
| O=C(Nc1ccc(-c2cnc3nc2NCCCNS(=O)(=O)c2cccc(c2)N3)cc1)C1(c2cccc(F)c2)CC1 [Example 8, 1-(3-Fluoro-phenyl)-cyclopropane-carboxylic acid [4-(13,13-dioxo-13λ^6-thia-2,4,8,12,19-pentaaza-tricyclo[12.3.1.1^3,7]nonadeca-1(18),3(19),4,6,14,16-hexaen-6-yl)-phenyl]-amide] | >20 fold | >20 fold |
| O=C(Nc1ccc(-c2cnc3nc2NCCCNS(=O)(=O)c2cccc(c2)N3)cc1)C1(c2ccc(F)cc2)CC1 [Example 9, 1-(4-Fluoro-phenyl)-cyclopropane-carboxylic acid [4-(13,13-dioxo-13λ^6-thia-2,4,8,12,19-pentaaza-tricyclo[12.3.1.1^3.7]nonadeca-1(18),3(19),4,6,14,16-hexaen-6-yl)-phenyl]-amide] | >20 fold | >20 fold |
| O=C(Nc1ccc(-c2cnc3nc2NCCCNS(=O)(=O)c2cccc(c2)N3)cc1)C1(c2cccc(C(F)(F)F)c2)CC1 [Example 10, 1-(3-Trifluoromethyl-phenyl)-cyclopropane-carboxylic acid [4-(13,13-dioxo-13λ^6-thia-2,4,8,12,19-pentaaza-tricyclo[12.3.1.1^3,7]nonadeca-1(18),3(19),4,6,14,16-hexaen-6-yl)-phenyl]-amide] | >20 fold | >20 fold |
| O=C(Nc1ccc(-c2cnc3nc2NCCCNS(=O)(=O)c2cccc(c2)N3)cc1)C1(c2ccc(C(F)(F)F)cc2)CC1 [Example 11, 1-(4-Trifluoromethyl-phenyl)-cyclopropane-carboxylic acid [4-(13,13-dioxo-13λ^6-thia-2,4,8,12,19-pentaaza-tricyclo[12.3.1.1^3,7]nonadeca-1(18),3(19),4,6,14,16-hexaen-6-yl)-phenyl]-amide] | >20 fold | >20 fold |
| O=C(Nc1ccc(-c2cnc3nc2NCCCNS(=O)(=O)c2cccc(c2)N3)cc1)C1(c2cc(C(F)(F)F)ccc2F)CC1 [Example 12, 1-(2-Fluoro-5-trifluoromethyl-phenyl)-cyclopropane-carboxylic acid [4-(13,13-dioxo-13λ^6-thia-2,4,8,12,19-pentaaza-tricyclo[12.3.1.1^3,7]-nonadeca-1(18),3(19),4,6,14,16-hexaen-6-yl)-phenyl]-amide] | >20 fold | >20 fold |
| CC(C)(C(=O)Nc1ccc(-c2cnc3nc2NCCCNS(=O)(=O)c2cccc(c2)N3)cc1)c1ccc(Cl)cc1 [Example 13, 2-(4-Chloro-phenyl)-N-[4-(13,13-dioxo-13λ^6-thia-2,4,8,12,19-pentaaza-tricyclo[12.3.1.1^3,7]-nonadeca-1(18),3(19),4,6,14,16-hexaen-6-yl)-phenyl]-isobutyramide] | >20 fold | >20 fold |
